According to paper PMC11191602, “A novel and selective fluorescent ligand for the study of adenosine A2B receptors” (Pharmacology Research & Perspectives, 2024):
Values belong to the compound of their own block, whether it stands above or below them.

Experiments:
[1] = target: T1, NLuc‐A2BR (Homo sapiens, UniProt P29275); assay: NanoBRET competition binding against 50 nM PSB603‐BY630 in HEK293G cells expressing NLuc‐A2BR; conditions: for Ki: read-out: Appararent Log K i (converted)
T1 construct: expressed in transfected cells
T1 sequence (P29275 1-332): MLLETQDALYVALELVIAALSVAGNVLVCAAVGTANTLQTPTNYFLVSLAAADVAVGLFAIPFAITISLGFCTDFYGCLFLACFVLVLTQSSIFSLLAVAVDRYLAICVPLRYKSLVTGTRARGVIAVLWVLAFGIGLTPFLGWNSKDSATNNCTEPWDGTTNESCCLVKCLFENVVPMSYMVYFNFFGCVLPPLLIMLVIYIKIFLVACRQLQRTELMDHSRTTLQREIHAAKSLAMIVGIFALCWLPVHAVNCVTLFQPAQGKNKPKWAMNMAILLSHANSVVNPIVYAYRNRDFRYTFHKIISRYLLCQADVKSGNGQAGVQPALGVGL
Method: (§1) Saturation and competition binding assays were performed as previously described.[36] Briefly, cells were seeded in 96‐well white clear‐bottomed Greiner plates pre‐treated with 10 μg/mL poly‐D‐lysine (Sigma‐Aldrich, Missouri USA) at a density of 30 000–35 000 cells per well in DMEM supplemented with 10% FBS. […] The NanoLuc substrate, furimazine (Promega Corporation, Wisconsin, USA), was then added to each well (1:400 dilution) and the plate was incubated for 10 min in the dark at 37°C. The resulting bioluminescence resonance energy transfer (BRET) was measured using a PHERAstar FS plate reader (BMG Labtech) at 37°C. For each well, filtered light emissions at 460 nm (80 nm bandpass) and >610 nm (longpass) for the BODIPY630/650 ligand were simultaneously measured. BRET ratios were calculated by dividing the 610 nm emission by the 460 nm emission. All conditions were performed in 2–6 replicates within each plate. For kinetic experiments, cells were preincubated for 10 min with 1:400 dilution of furimazine prior to addition of 200 nM PSB603‐BY630 and BRET ratios determined every 0.5 min.
The IC 50 values were then used to calculate the K i values using the Cheng‐Prussoff equation: Ki=IC50/1+L/KD where [L] is the concentration of PSB603‐BY630 in nM, and K D is the dissociation constant of that fluorescent ligand in nM.

[2] = target: T2, endogenous A2BR (Homo sapiens, UniProt P29275); assay: cAMP GloSensor luminescence assay in HEK293G cells endogenously expressing A2BR; type: cell-based; conditions: agonist alone, n=5
T2 construct: HEK293G cells that express the cAMP biosensor Glosensor also endogenously express both A2BR and A2AR; host or cells: HEK293G
T2 sequence (P29275 1-332): T1 sequence (P29275 1-332)
Method: (§2) The cAMP GloSensor™ luminescence assay was performed according to the manufacturer's instructions (Promega Corporation, Madison, WI, USA). Briefly, after 24 h incubation at 37°C and 5% CO2 after cell plating (40 000 cells/well in 100 μL), medium was aspirated from each well of the 96‐well plate. Cells were incubated in 50 μL HEPES buffered saline solution (HBSS; 2 mM sodium pyruvate, 145 mM NaCl, 10 mM D‐glucose, 5 mM KCl, 1 mM MgSO4.7H2O, 10 mM HEPES, 1.3 mM CaCl2, 1.5 mM NaHCO3 in double‐distilled water, pH 7.45) containing 3% GloSensor™ cAMP reagent at 37°C for 1.5 h. For agonist studies, an initial baseline luminescence read was made at time zero, the plate was then removed from the plate‐reader and a further 50 μL HBSS containing agonist (2× final concentration) or HBSS (vehicle control) added. Luminescence was measured on an open channel (gain of 3600) immediately after these additions, and then continuously over 60 min, reading each well once every minute, by a PHERAstar FSX microplate reader (BMG Labtech, Offenburg, Germany) at 37°C. Increases in luminescence are indicative of intracellular cAMP accumulation, thus the temporal changes in relative cytosolic cAMP concentration were measured upon agonist or vehicle addition. Antagonist action was determined following 30 min pre‐incubation of HBSS in the presence of 20 and 200 nM PSB603‐BY630 and read as above. All conditions were performed in triplicates within each plate.

[3] = target: T1, NLuc‐A2BR; assay: cAMP GloSensor luminescence assay in HEK293G cells overexpressing NLuc‐A2BR; type: cell-based; conditions: agonist alone, n=5
Method: as §2

[4] = target: T1, NLuc‐A2BR; assay: NanoBRET imaging of PSB603‐BY630 binding to HEK293G cells expressing NLuc‐A2BR; conditions: 100 nM PSB603‐BY630, co‐incubation with 10 μM MRS‐1706, 30 min
Method: Cells were seeded onto 35 mm Cellview 4‐quadrant culture dishes (Greiner Bio‐one), which have a 10 mm glass coverslip bottom, in DMEM supplemented with 10% FBS at a density of 100 000 cells per quadrant 2 days prior to experiment in total volume of 500 μL. On the day of the experiment medium was replaced with HBSS in the presence or absence of PSB603‐BY630 (100 nM) and/or MRS1706 (10 μM) and incubated for 30 min at 37°C before imaging. Bioluminescence and NanoBRET imaging were performed on an Olympus LuminoView 200 microscope with a 60× NA1.42 oil immersion objective with a 0.5× tube lens, following addition of furimazine (1:800 dilution) (Promega). Images were captured by a C9100‐23B IMAGE EMX2 camera (Hamamatsu, Japan) with gain set at 200 for all channels. Filtered bioluminescence was captured using a 438/24 bandpass filter, BRET in the presence of PSB603‐BY630 was captured using a 650/50 nm bandpass filter. For the NLuc‐A2BR stable cell line exposure times were set at 10 s for filtered bioluminescence and 75 sec for BRET. Raw intensity values were determined for three regions of interest per experiment per condition and the BRET ratio calculated by dividing the raw intensity recorded from the BRET capture by the filtered bioluminescence capture. Corrected BRET ratios were determined by subtracting the BRET ratio determined from a control quadrant (HBSS alone). […]

[5] = target: human A2BR; parameters: method as in PMID 23286920; conditions: membranes from CHO cells expressing the human A2BR ref 13; cited from earlier work
[6] = target: T3, human NLuc‐A3R (Homo sapiens, UniProt P0DMS8); assay: NanoBRET saturation binding in stable HEK293G cell line expressing NLuc‐A3R; conditions: non‐specific defined with 1 μM MRS‐1220; PSB603‐BY630 at concentrations up to 500 nM
T3 construct: expressed in transfected cells
T3 sequence (P0DMS8 1-318): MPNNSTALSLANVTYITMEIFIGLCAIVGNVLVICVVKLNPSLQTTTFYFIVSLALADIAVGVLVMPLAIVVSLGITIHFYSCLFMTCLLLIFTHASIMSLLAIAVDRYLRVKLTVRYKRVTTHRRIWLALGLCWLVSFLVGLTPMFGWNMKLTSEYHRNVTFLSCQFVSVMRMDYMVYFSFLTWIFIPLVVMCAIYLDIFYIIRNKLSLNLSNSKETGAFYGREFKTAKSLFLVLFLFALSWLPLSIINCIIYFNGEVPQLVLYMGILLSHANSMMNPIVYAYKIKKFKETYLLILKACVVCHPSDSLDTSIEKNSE
Method: as §1, with “min. At 60 min, 10 μM MRS‐1706 was added and the ligand‐binding kinetics followed for a further 60 min.” for “min.”

- IC50 [1]: 9.55 µM
- Ki [1]: 2.57 µM
SMILES: COc1ccc(CCCn2ncc3c2nc(N)n2nc(-c4ccco4)nc32)cc1 [SCH442416, 2‐(2‐Furanyl)‐7‐[3‐(4‐methoxyphenyl)propyl]‐7H‐pyrazolo[4,3‐e][1,2,4]triazolo[1,5‐c]pyrimidin‐5‐amine]

SMILES: N#Cc1c(N)nc(SCC(N)=O)c(C#N)c1-c1ccc(OCC2CC2)cc1 [BY 60–6583, 2‐[[6‐Amino‐3,5‐dicyano‐4‐[4‐(cyclopropylmethoxy)phenyl]‐2‐pyridinyl]thio]‐acetamide]
- Emax ([2]; HEK293G, read-out: Endogenous HEK293G EMAX (% of response to 3 μM BAY‐60‐6583)): 104 ± 3.09%
- EC50 ([2]; read-out: Endogenous HEK293G Log EC50 (converted)): 0.129 µM
- Emax ([3]; HEK293G, read-out: HEK293G A2BAR EMAX (% of response to 0.3 μM BAY‐60‐6583)): 100 ± 1.29%
- EC50 ([3]; read-out: HEK293G A2BAR Log EC50 (converted)): 0.0186 µM

- IC50 [1]: 6.46 µM
- Ki [1]: 1.74 µM
SMILES: O[C@H]1CC[C@H](Nc2nc(-c3ccccc3)nc3[nH]ccc23)CC1 [SLV320, trans‐4‐[(2‐Phenyl‐7H‐pyrrolo[2,3‐d]pyrimidin‐4‐yl)amino]cyclohexanol]

SMILES: CCCn1c(=O)c2[nH]c(-c3ccc(OCC(=O)Nc4ccc(C(C)=O)cc4)cc3)nc2n(CCC)c1=O [MRS1706, N‐(4‐Acetylphenyl)‐2‐[4‐(2,3,6,7‐tetrahydro‐2,6‐dioxo‐1,3‐dipropyl‐1H‐purin‐8‐yl)phenoxy]acetamide]
- IC50 [1]: 0.0363 µM
- Ki [1]: 0.00977 µM
- effect on PSB603‐BY630 binding to cell surface receptors (BRET imaging) [4]: completely prevented

SMILES: O=C(Cc1ccccc1)Nc1nc2ccc(Cl)cc2c2nc(-c3ccco3)nn12 [MRS1220, N‐[9‐Chloro‐2‐(2‐furanyl)[1,2,4]‐triazolo[1,5‐c]quinazolin‐5‐yl]benzene acetamide]
- Appararent Log K i ([1]; calculated from IC50 (Cheng‐Prussoff) assuming competition with 50 nM PSB603‐BY630 for the same site, mean ± S.E.M., n=5): −6.40 ± 0.19
- Log IC50 ([1]; inhibition of the binding of 50 nM PSB603‐BY630, mean ± S.E.M., n=5): −5.82 ± 0.19

SMILES: CCCn1c(=O)[nH]c2nc(-c3ccc(S(=O)(=O)N4CCN(c5ccc(Cl)cc5)CC4)cc3)[nH]c2c1=O [[^3H]‐PSB603]
- Kd [5]: 0.0036 µM

- specific binding to NLuc‐A3R [6]: high affinity specific binding
SMILES: COc1ccc(-n2nc3c(NC(=O)CCC(=O)NCCOCCOCCNC(=O)CCCCCNC(=O)COc4ccc(/C=C/C5=[N+]6C(=Cc7ccc(-c8cccs8)n7[B-]6(F)F)C=C5)cc4)nc4ccccc4n3c2=O)cc1 [AV039]
